For data set [1], the target named is T1, c-Met (Homo sapiens, UniProt P08581).
T1 construct: c-Met cytoplasmic domain (amino acids 969 to C-terminus); made in house; host or cells: baculovirus / Sf9 cells
The data set can be described thus: Inhibition of c-Met kinase (33P-ATP filter assay). The format is biochemical. The note with it: GST-c-Met cytoplasmic domain, poly(EY) substrate; read-out: IC50 range class, inhibition of c-Met. The text has this:
Compounds of the formula I, for example, are able to inhibit c-Met kinase as mentioned already in the introduction. Using the sequence disclosed by Chan et al. (see Chan, A M-L, King H W S, Tempest P R, Deakin E A, Cooper C S, Brookes P. Primary structure of the met protein tyrosine kinase domain. Oncogene 1987; 12:229-233), a construct with this sequence, after hooking to a GST tag, was cloned into baculovirus and expressed in Sf9 cells. After partial purification by affinity chromatography on GST agarose resulting in a >90% pure preparation (SDS-PAGE), the kinase activity of this construct is used for inhibition assays using the compounds of formula I. The quality of the purified kinase preparations is highly reproducible: 9 batches of c-Met gives an average specific activity of 32.3±5.7 nmol/mg·min.
For inhibition studies, the following experimental protocol is used:
In vitro protein kinase assays are performed in 96-well plates. The amount of enzyme used in kinase assays and the incubation time for the kinase reaction are adjusted so that maximally 25% (in routine experiments <10%) of the substrate ATP are consumed.
Test compounds of the formula I are first dissolved in DMSO at a concentration of 1-10 mM (stock solution) and then further diluted with water/3% DMSO as required so that the final DMSO concentration in the assay is 1%.
The assay components are mixed in the following order: • 10 μl 3×compound (in 3% DMSO) • 10 μl 3×assay mix (MgCl2/MnCl2/ATP/^33P-ATP/poly(EY)) • 10 μl 3×enzyme dilution
Assays are incubated for 15 min (in special cases up to 60 min) at ambient temperature, reactions terminated by addition of 10 μl 0.25 M EDTA pH 7, then 20 μl transferred to a Millipore Immobilon^P membrane (previously soaked for 5 min with methanol, rinsed with water, then soaked for 5 min with 0.5% H3PO4 and mounted on vacuum manifold) with disconnected vacuum source. After spotting all samples, vacuum is connected and each well rinsed with 200 μl 0.5% H3PO4. Membranes are removed and washed 4× on shaker with 0.5% H3PO4, once with methanol. Membranes are counted after drying at ambient temperature, mounting in Packard TopCount 96-well frame, and addition of 10 μl/well of the scintillator Microscint™ (Packard).
IC50 values are calculated by logarithmic regression analysis of the percentage inhibition of each compound at 4 concentrations (usually 3- or 10-fold dilution series starting at 10 μM). In each experiment, the actual inhibition by reference compound is used for normalization of IC50 values to the basis of an average value of the reference inhibitor: Normalized IC50=measured IC50·average ref. IC50/measured ref. IC50 Example: • Reference inhibitor in experiment 0.4 μM, average 0.3 μM • Test compound in experiment 1.0 μM, normalization: 1.0·0.3/0.4=0.75 μM
For example, staurosporine or a synthetic staurosporine derivative are used as reference compounds.

Molecules are shown by their SMILES. Where a name gives a salt, the structure may show the parent alone. Where only a bound is given, the exact number is not on record here.

T1 sequence (P08581 969-1390 limits assumed): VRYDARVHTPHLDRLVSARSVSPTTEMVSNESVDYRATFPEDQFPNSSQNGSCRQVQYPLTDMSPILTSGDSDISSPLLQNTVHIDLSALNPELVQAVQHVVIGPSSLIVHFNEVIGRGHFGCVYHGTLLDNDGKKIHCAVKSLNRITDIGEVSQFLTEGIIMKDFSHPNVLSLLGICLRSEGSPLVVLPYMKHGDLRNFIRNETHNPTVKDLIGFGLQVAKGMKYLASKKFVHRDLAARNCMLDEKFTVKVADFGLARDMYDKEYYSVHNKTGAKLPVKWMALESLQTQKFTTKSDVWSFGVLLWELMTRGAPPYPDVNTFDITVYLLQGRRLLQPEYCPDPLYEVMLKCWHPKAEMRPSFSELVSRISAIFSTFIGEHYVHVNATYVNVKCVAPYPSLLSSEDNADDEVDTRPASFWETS

In general, melting point refers to the temperature, or range, at which the solid turns liquid. On to `N/C(Cc1nc2cnc3ccc(Cl)cc3c2n1-c1ccccc1Cl)=N/O` (as salt: sodium) [Example 87, 2-[8-Chloro-1-(2-chloro-phenyl)-1H-imidazo[4,5-c]quinolin-2-yl]-N-hydroxy-acetamidine], for which the melting point amounted to 114 °C.

Consider `Fc1ccc(-n2cnc3cnc4ccccc4c32)cc1` [Example 1, 1-(4-Fluoro-phenyl)-1H-imidazo[4,5-c]quinoline], for which the melting point is 161 to 162 °C.

The molecule `Fc1ccc(-n2cnc3cnc4cc(Cl)ccc4c32)cc1` [Example 15, 7-Chloro-1-(4-fluoro-phenyl)-1H-imidazo[4,5-c]quinoline] returned a melting point of 273 to 274 °C.

Take `Fc1ccc2ncc3ncn(-c4ccccc4F)c3c2c1` [Example 19, 8-Fluoro-1-(2-fluoro-phenyl)-1H-imidazo[4,5-c]quinoline]: the melting point is 162 to 163 °C.

The molecule `Clc1ccc2ncc3ncn(-c4ccccc4)c3c2c1` [Example 23, 8-Chloro-1-phenyl-1H-imidazo[4,5-c]quinoline] returned a melting point of 240 to 242 °C.

Broadly, the IC50 is the midpoint of a concentration-inhibition curve. With `Clc1ccc2ncc3ncn(-c4ccccc4Cl)c3c2c1` [Example 25, 8-Chloro-1-(2-chloro-phenyl)-1H-imidazo[4,5-c]quinoline], in data set [1], the 50% inhibitory concentration (IC50) is at most 500 nM.

As to `NCc1cccc(-n2cnc3cnc4ccc(Cl)cc4c32)c1` [Example 42, 3-(8-Chloro-imidazo[4,5-c]quinolin-1-yl)-benzylamine], the melting point was in the range of 148 to 149 °C.

For the molecule `NCCc1ccc(-n2cnc3cnc4ccc(Cl)cc4c32)cc1` [Example 43, 2-[4-(8-Chloro-imidazo[4,5-c]quinolin-1-yl)-phenyl]-ethylamine], the melting point lay within 140 to 141 °C.

Molecule `COc1ccc2ncc3ncn(-c4ccccc4Cl)c3c2c1` [Example 44, 1-(2-Chloro-phenyl)-8-methoxy-1H-imidazo[4,5-c]quinoline] returned a melting point of 202 to 205 °C.

In turn, `CCc1ccc2ncc3ncn(-c4ccccc4Cl)c3c2c1` [Example 49, 1-(2-Chloro-phenyl)-ethyl-1H-imidazo[4,5-c]quinoline] showed a melting point of 156 to 158 °C.

In turn, `Brc1ccccc1-n1cnc2cnc3ccc(-c4ccccc4)cc3c21` [Example 53, 1-(2-Bromo-phenyl)-8-Phenyl-1H-imidazo[4,5-c]quinoline] gave a melting point of 128 to 129 °C.

`N/C(=N\O)c1ccccc1-n1cnc2cnc3ccc(-c4ccccc4)cc3c21` [Example 67, N-Hydroxy-2-(8-phenyl-imidazo[4,5-c]quinolin-1-yl)-benzamidine] came in with a melting point of 249 to 251 °C.

For `N/C(Cc1ccccc1-n1cnc2cnc3ccc(-c4ccccc4)cc3c21)=N/O` [Example 68, N-Hydroxy-2-[2-(8-phenyl-imidazo[4,5-c]quinolin-1-yl)-phenyl]-acetamidine], the melting point fell in the range of 253 to 254 °C.

`N=C(N)c1ccccc1-n1cnc2cnc3ccc(-c4ccccc4)cc3c21` [Example 69, 2-(8-Phenyl-imidazo-4,5-quinolin-1-yl)-benzamidine] returned a melting point of 284 to 285 °C.

The molecule `N=C(N)Cc1ccccc1-n1cnc2cnc3ccc(-c4ccccc4)cc3c21` [Example 70, 2-[2-(8-Phenyl-imidazo[4,5-c]quinolin-1-yl)-phenyl]-acetamidine] showed a melting point of 261 to 263 °C.

With `[O-][n+]1cc2ncn(-c3ccccc3Cl)c2c2cc(Cl)ccc21` [Example 71, 8-Chloro-1-(2-chloro-phenyl)-1H-imidazo[4,5-c]quinoline 5-oxide], the melting point is 247 to 250 °C.

Turning to `O=C(Nc1nc2ccc(Cl)cc2c2c1ncn2-c1ccccc1Cl)c1ccccc1` [Example 72, N-[8-Chloro-1-(2-chloro-phenyl)-1H-imidazo[4,5-c]quinolin-4-yl]-benzamide], the melting point was 255 to 258 °C.

`Nc1nc2ccc(Cl)cc2c2c1ncn2-c1ccccc1Cl` [Example 73, 8-Chloro-1-(2-chloro-phenyl)-1H-imidazo[4,5c]-quinolin-4-ylamine] yielded a melting point of 262 to 263 °C.

`N#Cc1nc2ccc(Cl)cc2c2c1ncn2-c1ccccc1Cl` [Example 74, 8-Chloro-1-(2-chloro-phenyl)-1H-imidazo[4,5-c]quinoline-4-carbonitrile]: the melting point was 248 to 250 °C.

For `Clc1ccc2nc(Cl)c3ncn(-c4ccccc4Cl)c3c2c1` [Example 75, 4,8-Dichloro-1-(2-chloro-phenyl)-1H-imidazo[4,5-c]quinoline], the melting point lay within 194 to 200 °C.

`CNc1nc2ccc(Cl)cc2c2c1ncn2-c1ccccc1Cl` [Example 76, [8-Chloro-1-(2-chloro-phenyl)-1H-imidazo[4,5-c]quinolin-4-yl]-methyl-amine]: the melting point was in the range of 210 to 212 °C.

As for `Clc1ccc2ncc3nc(Br)n(-c4ccccc4Cl)c3c2c1` [Example 82, 2-Bromo-8-chloro-1-(2-chloro-phenyl)-1H-imidazo[4,5-c]quinoline], the melting point lay in the range of 183 to 192 °C.

The molecule `NC(=O)c1nc2cnc3ccc(Cl)cc3c2n1-c1ccccc1Cl` [Example 83, 8-Chloro-1-(2-chloro-phenyl)-1H-imidazo[4,5-c]quinoline-2-carboxylic acid amide] displayed a melting point of 194 to 195 °C.

Turning to `N#Cc1nc2cnc3ccc(Cl)cc3c2n1-c1ccccc1Cl` [Example 84, 8-Chloro-1-(2-chloro-phenyl)-1H-imidazo[4,5-c]quinoline-2-carbonitrile], the melting point fell in the range of 242 to 244 °C. For the same molecule, the IC50 in data set [1] was at most 500 nM.

`N/C(=N\O)c1nc2cnc3ccc(Cl)cc3c2n1-c1ccccc1Cl` [Example 86, 8-Chloro-1-(2-chloro-phenyl)-N-hydroxy-1H-imidazo[4,5-c]quinoline-2-carboxamidine]: the melting point lay within 265 to 267 °C.

Take `N/C(Cc1nc2cnc3ccc(Cl)cc3c2n1-c1ccccc1Cl)=N/O` [Example 87, 2-[8-Chloro-1-(2-chloro-phenyl)-1H-imidazo[4,5-c]quinolin-2-yl]-N-hydroxy-acetamidine]: the half-maximal inhibitory concentration (IC50) in data set [1] was 500 to 1000 nM.

With `N=C(N)Cc1nc2cnc3ccc(Cl)cc3c2n1-c1ccccc1Cl` [Example 88, 2-[8-Chloro-1-(2-chloro-phenyl)-1H-imidazo[4,5-c]quinolin-2-yl]-acetamidine], the half-maximal inhibitory concentration (IC50) in data set [1] was at most 500 nM.

Consider `O=c1[nH]c2cnc3ccc(Cl)cc3c2n1-c1ccccc1Cl` [Example 92, 8-Chloro-1-(2-chloro-phenyl)-1,3-dihydro-imidazo[4,5-c]quinolin-2-one], for which, in data set [1], the IC50 lay within 500 to 1000 nM.

In the case of `O=c1n(-c2cccc(Cl)c2)c2cnc3ccc(Br)cc3c2n1-c1ccccc1Cl` [Example 102, 8-Bromo-1-(2-chloro-phenyl)-3-(3-chloro-phenyl)-1,3-dihydro-imidazo[4,5-c]quinolin-2-one], the half-maximal inhibitory concentration (IC50) in data set [1] is 1000 to 2000 nM.

Take `O=c1n(Cc2ccoc2)c2cnc3ccc(Cl)cc3c2n1-c1ccccc1Cl` [Example 133, 8-Chloro-1-(2-chloro-phenyl)-3-(3-furyl-methyl)-1,3-dihydro-imidazo[4,5-c]quinolin-2-one]: in data set [1], the IC50 was at most 500 nM.

In the case of `Cc1nc2cnc3ccc(Cl)cc3c2n1-c1ccccc1Cl` [Example 136, 8-Chloro-1-(2-chloro-phenyl)-2-methyl-1H-imidazo[4,5-c]quinoline], the melting point came out at 177.5 °C.

For the origin of these results see US7998972B2, “1H-imidazo[4,5-c]quinoline derivatives in the treatment of protein kinase dependent diseases” (Novartis AG, priority 2002, dated 2011).
